This experiment deals with T1, Ara1 (Saccharomyces cerevisiae, UniProt P38115).
T1 construct: Ni-NTA and Superdex 200; tag cleavage not mentioned; homodimer
Put plainly: X-ray crystallography of co-crystal, […] A. The note with it: co-crystallised with 5 mM NADPH, pH 6.5, 0.05 M CaCl2, 289 K; cofactor-binding site.

The values below come from publication PMC3818031 (Acta Crystallographica Section F: Structural Biology and …, 2013).

As for `NC(=O)C1=CN([C@@H]2O[C@H](COP(=O)(O)OP(=O)(O)OC[C@H]3O[C@@H](n4cnc5c(N)ncnc54)[C@H](OP(=O)(O)O)[C@@H]3O)[C@@H](O)[C@H]2O)C=CC1` [NADPH], the “X-ray crystallography of co-crystal, 2.00 A” value was “The structure of the Ara1–NADPH complex showed that a molecule of NADPH binds”.
